Earlier results, collected in PMC5762859, “Distribution analysis of epertinib in brain metastasis of HER2-positive breast cancer by imaging mass spectrometry and prospect for antitumor activity” (Scientific Reports, 2018).

How the values were obtained:
[1] = healthy volunteers, single oral 250 mg [14C]-lapatinib; cited from earlier work
[2] = target: T1, P-glycoprotein (P-gp) (Homo sapiens, UniProt P08183); details: cited from earlier work
T1 construct: permeability and efflux ratio of epertinib across Caco-2 cell monolayers; endogenous in cells; host or cells: Caco-2
T1 sequence (P08183 whole entry): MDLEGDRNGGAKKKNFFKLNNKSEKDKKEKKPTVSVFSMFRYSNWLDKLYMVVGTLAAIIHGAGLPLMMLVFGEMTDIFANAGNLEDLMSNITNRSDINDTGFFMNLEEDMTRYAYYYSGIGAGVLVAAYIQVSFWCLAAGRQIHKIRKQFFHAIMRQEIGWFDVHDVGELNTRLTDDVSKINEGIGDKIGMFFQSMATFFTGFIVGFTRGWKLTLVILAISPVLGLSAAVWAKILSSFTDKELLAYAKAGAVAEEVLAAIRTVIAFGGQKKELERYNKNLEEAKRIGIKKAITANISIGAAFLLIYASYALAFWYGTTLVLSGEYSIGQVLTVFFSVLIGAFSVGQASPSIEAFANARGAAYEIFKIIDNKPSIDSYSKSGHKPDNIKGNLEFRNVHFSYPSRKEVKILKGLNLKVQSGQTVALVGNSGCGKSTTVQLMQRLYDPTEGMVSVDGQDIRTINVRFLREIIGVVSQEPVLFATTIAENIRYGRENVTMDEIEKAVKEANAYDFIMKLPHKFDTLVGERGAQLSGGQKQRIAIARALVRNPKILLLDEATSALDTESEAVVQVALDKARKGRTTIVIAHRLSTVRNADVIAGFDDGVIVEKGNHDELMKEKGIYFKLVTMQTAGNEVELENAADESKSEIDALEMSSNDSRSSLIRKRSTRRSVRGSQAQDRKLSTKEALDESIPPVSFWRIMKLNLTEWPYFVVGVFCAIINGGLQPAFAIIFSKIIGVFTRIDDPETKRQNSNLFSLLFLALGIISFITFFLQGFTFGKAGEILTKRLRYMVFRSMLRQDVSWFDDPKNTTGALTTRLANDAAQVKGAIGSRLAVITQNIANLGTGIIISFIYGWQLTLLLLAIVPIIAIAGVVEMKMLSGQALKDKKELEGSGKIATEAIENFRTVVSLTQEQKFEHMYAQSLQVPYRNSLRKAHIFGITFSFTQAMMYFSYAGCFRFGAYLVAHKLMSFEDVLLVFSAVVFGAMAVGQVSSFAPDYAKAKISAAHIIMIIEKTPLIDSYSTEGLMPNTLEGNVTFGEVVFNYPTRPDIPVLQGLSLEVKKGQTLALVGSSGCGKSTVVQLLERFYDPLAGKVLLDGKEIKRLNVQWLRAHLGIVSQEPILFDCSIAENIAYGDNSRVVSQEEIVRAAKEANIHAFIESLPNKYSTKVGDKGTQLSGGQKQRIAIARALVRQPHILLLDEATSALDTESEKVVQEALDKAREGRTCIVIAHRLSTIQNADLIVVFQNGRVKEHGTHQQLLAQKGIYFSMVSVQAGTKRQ

[3] = target: T2, breast cancer resistance protein (BCRP) (Homo sapiens, UniProt Q9UNQ0); details: cited from earlier work
T2 construct: permeability and efflux ratio of epertinib across Caco-2 cell monolayers; endogenous in cells; host or cells: Caco-2
T2 sequence (Q9UNQ0 1-655): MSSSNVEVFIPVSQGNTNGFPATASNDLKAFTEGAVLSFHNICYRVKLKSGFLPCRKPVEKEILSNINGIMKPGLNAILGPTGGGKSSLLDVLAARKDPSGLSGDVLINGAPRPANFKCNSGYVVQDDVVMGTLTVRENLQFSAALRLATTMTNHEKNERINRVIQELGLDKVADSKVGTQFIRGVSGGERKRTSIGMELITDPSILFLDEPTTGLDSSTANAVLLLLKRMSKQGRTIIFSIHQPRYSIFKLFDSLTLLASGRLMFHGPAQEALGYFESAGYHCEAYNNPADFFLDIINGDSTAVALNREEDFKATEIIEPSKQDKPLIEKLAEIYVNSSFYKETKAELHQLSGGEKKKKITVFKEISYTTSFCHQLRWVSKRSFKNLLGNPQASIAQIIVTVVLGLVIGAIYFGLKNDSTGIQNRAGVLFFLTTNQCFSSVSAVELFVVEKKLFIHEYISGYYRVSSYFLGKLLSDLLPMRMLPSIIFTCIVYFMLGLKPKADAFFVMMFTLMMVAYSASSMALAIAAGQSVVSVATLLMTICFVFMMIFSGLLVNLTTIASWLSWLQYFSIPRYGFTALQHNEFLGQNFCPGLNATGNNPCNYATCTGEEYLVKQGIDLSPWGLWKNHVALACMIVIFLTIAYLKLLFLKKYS

[4] = system: HER2-positive metastatic breast cancer patients; details: historical data, combination with trastzumab; cited from earlier work

Row | SMILES | Mean plasma concentration of total radioactivity at Cmax [1] | P-gp substrate [2] | BCRP substrate [3] | Objective response rate (ORR) [4]
1 | CS(=O)(=O)CCNCc1ccc(-c2ccc3ncn[14c](Nc4ccc(OCc5cccc(F)c5)c(Cl)c4)c3c2)o1.Cc1ccc(S(=O)(=O)O)cc1.O [[^14C]-lapatinib] | 720 ng eq./mL | – | – | –
2 | CN(C)C/C=C/C(=O)Nc1cc2c(Nc3ccc(F)c(Cl)c3)ncnc2cc1O[C@H]1CCOC1 [afatinib] | – | substrates | substrates | –
3 | CCOc1cc2ncc(C#N)c(Nc3ccc(OCc4ccccn4)c(Cl)c3)c2cc1NC(=O)/C=C/CN(C)C [neratinib] | – | substrates | substrates | –
4 | Cc1cc(Nc2ncnc3ccc(NC4=NC(C)(C)CO4)cc23)ccc1Oc1ccn2ncnc2c1 [tucatinib] | – | substrates | substrates | 26%
